From US20090149495A1, “COMPOUNDS” (priority 2005, published 2009)

Columns and labels:
[1] = molecular target: mGluR5; assay: MGluR5 receptor binding test ([3H]-M-MPEP displacement); set-up: species or system rat or human; details: radioligand [3H]-M-MPEP 2 nM; table does not say rat cortical membranes or hmGluR5a cells; read-out: mGlu5 Ki
Method: MGluR5 receptor binding was determined according to Gasparini et.al. (Bioorg. Med. Chem. Lett. 2000, 12:407-409) with modifications. Rat cerebro-cortical membrane preparation was used to determine the binding characteristics of reference compounds and novel compounds to the rat mGluR5. The A18 cell line expressing hmGluR5a (purchased from Euroscreen) was used to determine binding characteristics of the chemical compounds to the human mGluR5a receptor. As radioligand [3H]-M-MPEP (2 nM) was used. The nonspecific binding was determined in the presence of 10 μM M-MPEP.

[2] = molecular target: T1, mGluR1 (Rattus norvegicus, UniProt P23385); assay: MGluR1 receptor binding test ([3H]R214127 displacement, rat cerebellar membrane); details: rat cerebellar membranes; radioligand [3H]R214127 3 nM; read-out: mGlu1 Ki
T1 construct: rat cerebellar membrane preaparation was used; from tissue; host or cells: rat cerebellum (membrane preparation)
T1 sequence (P23385 19-1199): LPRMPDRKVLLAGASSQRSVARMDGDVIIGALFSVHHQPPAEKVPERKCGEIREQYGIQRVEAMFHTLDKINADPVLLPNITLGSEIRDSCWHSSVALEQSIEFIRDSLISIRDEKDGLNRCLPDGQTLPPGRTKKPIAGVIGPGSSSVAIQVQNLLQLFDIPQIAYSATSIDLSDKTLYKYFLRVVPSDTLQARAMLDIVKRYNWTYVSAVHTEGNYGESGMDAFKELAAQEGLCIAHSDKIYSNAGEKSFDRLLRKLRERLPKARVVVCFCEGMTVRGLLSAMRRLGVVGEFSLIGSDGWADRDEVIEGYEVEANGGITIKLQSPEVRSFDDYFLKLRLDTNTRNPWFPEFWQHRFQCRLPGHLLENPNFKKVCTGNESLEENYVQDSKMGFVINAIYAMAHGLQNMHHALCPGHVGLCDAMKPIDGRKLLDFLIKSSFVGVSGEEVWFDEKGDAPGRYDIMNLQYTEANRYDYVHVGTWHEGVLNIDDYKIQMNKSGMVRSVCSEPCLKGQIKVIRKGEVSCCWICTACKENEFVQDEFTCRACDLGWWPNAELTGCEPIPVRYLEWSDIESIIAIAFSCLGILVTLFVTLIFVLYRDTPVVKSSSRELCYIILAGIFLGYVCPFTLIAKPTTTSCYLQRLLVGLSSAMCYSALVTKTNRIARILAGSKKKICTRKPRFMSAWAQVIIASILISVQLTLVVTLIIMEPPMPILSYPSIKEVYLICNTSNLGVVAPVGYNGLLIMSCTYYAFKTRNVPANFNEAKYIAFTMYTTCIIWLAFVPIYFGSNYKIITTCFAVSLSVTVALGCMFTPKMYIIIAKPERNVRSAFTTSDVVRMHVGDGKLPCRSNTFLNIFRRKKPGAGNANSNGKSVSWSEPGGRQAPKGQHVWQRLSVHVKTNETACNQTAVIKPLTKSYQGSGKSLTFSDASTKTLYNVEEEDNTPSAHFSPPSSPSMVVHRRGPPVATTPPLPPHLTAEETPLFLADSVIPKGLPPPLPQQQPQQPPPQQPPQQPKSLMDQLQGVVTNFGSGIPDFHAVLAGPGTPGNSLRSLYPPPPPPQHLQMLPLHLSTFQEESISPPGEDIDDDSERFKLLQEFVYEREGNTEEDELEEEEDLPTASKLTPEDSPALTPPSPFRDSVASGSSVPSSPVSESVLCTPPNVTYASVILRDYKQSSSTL
Method: MGluR1 receptor binding tests were performed according to modified method of Lavreysen et al. (Mol.Pharm., 2003, 63, 1082). Based on the high homology between the human and rat mGluR1 receptors, rat cerebellar membrane preaparation was used to determine the binding characteristics of reference compounds and novel compounds to the rat mGluR1. As radioligand [3H]R214127 (3 nM) was used and the nonspecific binding was determined in the presence of 1 μM of R214127.
IC-50 values were determined from displacement curves by nonlinear regression analysis and were converted by equation method of Cheng and Prusoff (Biochem. Pharmacol., 1973, 22, 3099) to Ki values.

Ki [1] [nM] | Ki [2] [nM] | SMILES
< 500 | > 500 | O=S(=O)(c1ccc(Cl)cc1)c1sc2nc(O)ccc2c1-c1ccc(Cl)cc1 [Compound 1, 2-(4-Chloro-Benzenesulfonyl)-3-(4-Chloro-Phenyl)-7H-Thieno[2,3-b]Pyridin-6-One]
< 500 | < 500 | N#Cc1cccc(S(=O)(=O)c2sc3nc(O)ccc3c2-c2ccc(Cl)cc2)c1 [Compound 2, 3-[3-(4-chloro-phenyl)-6-oxo-6,7-dihydro-thieno[2,3-b]pyridin-2-sulfonyl]-benzonitrile]
< 500 | < 500 | O=C(OCc1ccc(F)cc1)c1sc2[nH]c(=O)ccc2c1-c1ccc(Cl)cc1 [Compound 3, 3-(4-chloro-phenyl)-6-oxo-6,7-dihydro-thieno[2,3-b]pyridine-2-carboxylic acid 4-fluoro-benzyl ester]
> 500 |  | Cc1cccc(S(=O)(=O)c2sc3[nH]c(=O)ccc3c2-c2ccc(Cl)cc2)c1 [Compound 4, 3-(4-chloro-phenyl)-2-(toluene-3-sulfonyl)-7H-thieno[2,3-b]pyridin-6-one]
